Counter-ions that a name gives are not always drawn. Starred links: 1 amine or outer side, 2 acyl side, 3 side chain; linkers in the order of their positions; H or OH if unused. Non-standard residues stand in square brackets, D forms with d. Residues, ends and D or L forms follow the SMILES beside them. Groups on a side chain read outwards from the residue. *: point of attachment. DOTA = O=C(O)CN1CCN(CC(=O)O)CCN(CC(=O)*)CCN(CC(=O)O)CC1; Trp(7-OMe) = COc1cccc2c(C[C@H](N)C(=O)O)c[nH]c12; Piperazinyl(4-CH2COOH) = O=C(O)CN1CCN(*)CC1; AEF = NCCOc1ccc(C[C@H](N)C(=O)O)cc1; X10 = O=C([C@H]1COCCN1[*:1])[*:2]; NMeF = CN[C@@H](Cc1ccccc1)C(=O)O; Ahp(2) = CCCCC[C@H](N)C(=O)O; CO = O=C([*:1])[*:2]; X3 = FC1(F)CCN(*)C1
Key:
mouse FAP [1] = target: T1, mouse FAP (Mus musculus, UniProt P97321); assay: Surface plasmon resonance (SPR) for peptide affinity, mouse FAP; assay type: binding
T1 construct: biotinylated His, Avi tag, mouse FAP (26-761, FAP-M82Q5); His; Avi tag (biotinylated); purchased AcroBiosystems FAP-M82Q5
T1 sequence (P97321 26-761): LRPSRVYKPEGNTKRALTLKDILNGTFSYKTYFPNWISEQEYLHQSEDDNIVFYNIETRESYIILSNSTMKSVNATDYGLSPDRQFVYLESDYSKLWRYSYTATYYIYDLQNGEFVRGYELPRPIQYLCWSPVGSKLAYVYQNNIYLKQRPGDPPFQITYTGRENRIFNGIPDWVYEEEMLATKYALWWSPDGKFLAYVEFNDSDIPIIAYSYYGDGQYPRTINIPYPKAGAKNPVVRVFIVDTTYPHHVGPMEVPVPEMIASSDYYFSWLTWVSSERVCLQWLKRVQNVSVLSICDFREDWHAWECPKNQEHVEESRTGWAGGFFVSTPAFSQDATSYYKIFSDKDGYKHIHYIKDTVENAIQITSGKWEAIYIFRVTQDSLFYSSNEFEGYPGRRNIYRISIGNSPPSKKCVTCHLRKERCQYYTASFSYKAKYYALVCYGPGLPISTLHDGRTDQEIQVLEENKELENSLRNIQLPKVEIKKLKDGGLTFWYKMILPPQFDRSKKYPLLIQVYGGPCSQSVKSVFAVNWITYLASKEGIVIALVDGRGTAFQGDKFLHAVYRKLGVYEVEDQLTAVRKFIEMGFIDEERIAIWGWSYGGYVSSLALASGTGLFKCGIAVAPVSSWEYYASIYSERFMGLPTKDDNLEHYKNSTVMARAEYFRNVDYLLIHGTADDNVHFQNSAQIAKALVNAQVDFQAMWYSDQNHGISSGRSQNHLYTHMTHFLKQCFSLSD
Procedure, shortened: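 KD values come from a 1:1 kinetic fit of single-cycle SPR data: 8 peptide concentrations, 25 °C, 30 μL/min, HEPES-buffered saline pH 7.6 with 2% DMSO. Targets were His/Avi-tagged human (26-760) or mouse (26-761) FAP, amine-coupled to CM5 or held on a CAPture chip.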

human FAP = target: T2, human FAP (Homo sapiens, UniProt Q12884); assay: Enzymatic FAP competition assay (Z-Gly-Pro-AMC fluorescence), human FAP; assay type: biochemical; conditions: read-out: h. FAP, Enz., IC50
T2 construct: the biotinylated His, Avi tag, human FAP (26-760, FAP-H82Q6); His; Avi tag (biotinylated); purchased AcroBiosystems FAP-H82Q6
T2 sequence (Q12884 26-760): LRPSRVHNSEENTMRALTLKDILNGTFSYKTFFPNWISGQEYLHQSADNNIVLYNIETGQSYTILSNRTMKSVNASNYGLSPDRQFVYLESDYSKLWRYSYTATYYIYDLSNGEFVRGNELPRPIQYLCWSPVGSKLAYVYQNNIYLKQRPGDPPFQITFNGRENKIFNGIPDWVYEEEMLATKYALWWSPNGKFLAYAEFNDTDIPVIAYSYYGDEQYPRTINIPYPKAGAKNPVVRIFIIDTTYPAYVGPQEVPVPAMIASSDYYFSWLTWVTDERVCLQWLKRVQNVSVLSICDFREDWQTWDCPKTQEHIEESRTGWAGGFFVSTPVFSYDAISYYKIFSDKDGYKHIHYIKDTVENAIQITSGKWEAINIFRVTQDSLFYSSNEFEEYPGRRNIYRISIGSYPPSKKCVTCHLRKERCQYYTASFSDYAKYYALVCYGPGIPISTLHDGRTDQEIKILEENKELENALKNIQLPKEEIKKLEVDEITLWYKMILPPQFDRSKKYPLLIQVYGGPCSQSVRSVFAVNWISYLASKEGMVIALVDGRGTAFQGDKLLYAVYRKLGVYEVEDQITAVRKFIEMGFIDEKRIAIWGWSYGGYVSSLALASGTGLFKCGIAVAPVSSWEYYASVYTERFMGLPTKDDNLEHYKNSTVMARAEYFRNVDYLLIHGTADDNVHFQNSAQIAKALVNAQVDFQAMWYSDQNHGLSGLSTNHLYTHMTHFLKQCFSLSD
Procedure, shortened: (§1)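 IC50 values come from curve fitting of duplicate % inhibition data on AMC fluorescence (ex 380, em 460 nm) after 4 h at 22-24° C with 50 μM Z-Gly-Pro-AMC. Beforehand, peptides up to 1 μM (14 levels) sat 24 h with 0.01 nM human (26-760) or mouse (26-761) tagged FAP in phosphate buffer pH 7.5, NaCl, Tween20, 1% DMSO.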

mouse FAP [2] = target: T1, mouse FAP; assay: Enzymatic FAP competition assay (Z-Gly-Pro-AMC fluorescence), mouse FAP; assay type: biochemical; conditions: read-out: m. FAP, Enz., IC50
Procedure, shortened: as §1

Molecule	Kd (mouse FAP [1])	IC50 (human FAP)	IC50 (mouse FAP [2])
CCCCC[C@@H]1NC(=O)[C@H](Cc2ccc(O)cc2)NC(=O)[C@H](Cc2ccccc2)N(C)C(=O)CNC(=O)CNC(=O)[C@H]2CCCN2C(=O)[C@H](CC(=O)O)NC(=O)[C@H](Cc2ccc(O)cc2)NC(=O)CNC(=O)[C@H](Cc2c[nH]c3c(OC)cccc23)NC1=O [Example A61, Gly-Gly-NMePhe-Tyr-Ahp-W(7OMe)-Gly-Tyr-Asp-D-Pro] (cyclo([Ahp(2)][Trp(7-OMe)]GYD[dP]GG[NMeF]Y))	0.162 nM	0.065 nM	0.3 nM
hSer-Gly-NMePhe-F(4amPEG2NHDOTA-Lu)-hS(Pr)-Trp-Gly-K(COpipzaa)-Asp-D-Pro [Example C4]	< 0.039 nM	0.011 nM	0.032 nM
CCCCC[C@@H]1NC(=O)[C@H](Cc2ccc(O)cc2)NC(=O)[C@H](Cc2ccccc2)N(C)C(=O)CNC(=O)CNC(=O)[C@H]2COCCN2C(=O)[C@H](CC(=O)O)NC(=O)[C@H](Cc2ccc(O)cc2)NC(=O)CNC(=O)[C@H](Cc2c[nH]c3ccccc23)NC1=O [Example A63, Gly-Gly-NMePhe-Tyr-Ahp-Trp-Gly-Tyr-Asp-Mor(3R-COOH)] (cyclo([Ahp(2)]WGYD[X10]GG[NMeF]Y))	20 nM	15 nM	55 nM
CCCCC[C@@H]1NC(=O)[C@H](Cc2ccc(OCCNC(=O)CN3CCN(CC(=O)O)CCN(CC(=O)O)CCN(CC(=O)O)CC3)cc2)NC(=O)[C@H](Cc2ccccc2)N(C)C(=O)CNC(=O)[C@H](CCCCNC(=O)N2CCN(CC(=O)O)CC2)NC(=O)[C@H]2CCCN2C(=O)[C@H](CC(=O)O)NC(=O)[C@H](Cc2ccc(O)cc2)NC(=O)CNC(=O)[C@H](Cc2c[nH]c3ccccc23)NC1=O [Example B25, K(COpipzaa)-Gly-NMePhe-F(4OEtNHDOTA)-Ahp-Trp-Gly-Tyr-Asp-D-Pro] (cyclo([AEF](DOTA)[Ahp(2)]WGYD[dP]K([CO-Piperazinyl(4-CH2COOH)])G[NMeF]))	0.44 nM	0.1 nM	0.38 nM
hSer-Gly-NMe3PyA-F(4amPEG2NHDOTA-Lu)-hS(Pr)-W7N-Gly-K(COpipzaa)-Asp-D-Pro [Example C6]	< 0.035 nM	0.024 nM	0.049 nM
CCCCC[C@@H]1NC(=O)[C@H](Cc2ccc(O)cc2)NC(=O)[C@H](Cc2ccccc2)NC(=O)[C@H](CCC(=O)O)NC(=O)[C@H](CCCCN)NC(=O)[C@H]2CCCN2C(=O)[C@H](CC(=O)O)NC(=O)[C@H](Cc2ccc(O)cc2)NC(=O)CNC(=O)[C@H](Cc2c[nH]c3ccccc23)NC1=O [Example A20, Lys-Glu-Phe-Tyr-Ahp-Trp-Gly-Tyr-Asp-D-Pro] (cyclo([Ahp(2)]WGYD[dP]KEFY))	8.7 nM	2.6 nM	8.7 nM
CN1C(=O)CNC(=O)[C@H](CCCCN)NC(=O)[C@H]2CCCN2C(=O)[C@H](CC(=O)O)NC(=O)[C@H](Cc2ccc(O)cc2)NC(=O)CNC(=O)[C@H](Cc2c[nH]c3ccccc23)NC(=O)[C@H](CCC(=O)N2CCC(F)(F)C2)NC(=O)[C@H](Cc2ccc(O)cc2)NC(=O)[C@@H]1Cc1ccccc1 [Example A30, Lys-Gly-NMePhe-Tyr-Q(Pyrro(4F2))-Trp-Gly-Tyr-Asp-D-Pro, TFA salt] (cyclo(D[dP]KG[NMeF]YE(X3)WGY))	2.4 nM	0.79 nM	2.5 nM

Reference: US20250090699A1, “FAP TARGETING CYCLIC PEPTIDES AND CONJUGATES THEREOF” (Novartis AG, priority 2023, published 2025)
